Here are results for one compound from patent publication US12319736B2, “Combination of antibody-drug conjugate and immune checkpoint inhibitor” (DAIICHI SANKYO COMPANY, LIMITED, priority 2016, dated 2025).

Assay [1] concerns bone marrow-derived dendritic cells. The experiment in a line: Effect on in vitro dendritic cells, flow cytometry (Evaluation Example 5). The format is cell-based, mouse. The settings on record: 0.0625-1 μM, 24 hours, compared with DMSO. As to the method: BALB/c mice were euthanized, and bone marrow cells were then separated from each femur, and cultured with an RPMI 1640 medium containing 10% FBS, 55 μM 2-mercaptoethanol, 100 U/mL penicillin, […], 1 mM sodium pyruvate, 1×non-essential amino acid, 2 mM L-glutamine, and 10 ng/mL mouse GM-CSF for 11 days to induce bone marrow-derived dendritic cells. To the culture solution for the induced dendritic cells, the compound (A) was added to a concentration of 0.0625 μM, 0.125 μM, 0.25 μM, 0.5 μM, or 1 μM. For a control, DMSO in a quantity equal to that of the compound (A) was added. After 24 hours, staining was performed by using a Pacific Blue labeled anti-mouse CD45 Antibody (103126, BioLegend), PE labeled anti-mouse CD86 (B7-2) (553692, Becton Dickinson), APC labeled anti-mouse CD11c (550261, Becton Dickinson), and FITC labeled anti-mouse MHC Class II (I-A/I-E) (11-5321-85, Thermo Fisher Scientific), and analysis was performed by using an FACS Canto II. Dead cells had been stained with a LIVE/DEAD Fixable Near-IR Dead Cell Stain Kit purchased from Thermo Fisher Scientific, and excluded from the analysis.

Assay [2] deals with CT26.WT-hHER2 cells. The experiment in a line: Analysis of in vitro cancer cells, MHC class I by flow cytometry (Evaluation Example 8). The format is cell-based, mouse. The note with it: 0.0625-1 μM, 24 hours, vs DMSO, Dunnett's test. How it is done:
(§1) To culture solution for CT26.WT-hHER2 cells, the compound (A) was added to a concentration of 0.0625 μM, 0.125 μM, 0.25 μM, 0.5 μM, or 1 μM. For a control, DMSO in a quantity equal to that of the compound (A) was added. After 24 hours, staining was performed by using PE labeled anti-human Her2/neu (340552, Becton Dickinson) and FITC labeled anti-mouse H-2Dd (110606, BioLegend), and expression levels of MHC class I on cancer cells were determined with flow cytometry. Dead cells had been stained with a LIVE/DEAD Fixable Near-IR Dead Cell Stain Kit purchased from Thermo Fisher Scientific, and excluded from the analysis. The mean fluorescence intensity (MFI) of MHC class I was calculated, and MFI for cells treated with an Isotype control was subtracted from the MFI for stained cells, and the resulting value was used as adjusted MFI. Comparison between the control group and the compound (A) group was performed by using Dunnett's test, P values were expressed as numerical values to the fourth decimal place, and values of P<0.05 (two-tailed test) were regarded as significant differences.

For assay [3], the system named is CT26.WT-hHER2 cells. The experiment in a line: Analysis of in vitro cancer cells treated with different compounds, MHC class I (Evaluation Example 17). The format is cell-based, mouse. The settings on record: 20 nM, 100 nM, 500 nM; vs control group, Dunnett's test; agents: compound (A), DM1-SMe, DM4-SMe, MMAE. As to the method: as §1
Expression levels of MHC class I were determined for cancer cells treated with different compounds. […]

A further assay concerns the target T1, topoisomerase I (Homo sapiens, UniProt P11387).
T1 sequence (P11387 1-765): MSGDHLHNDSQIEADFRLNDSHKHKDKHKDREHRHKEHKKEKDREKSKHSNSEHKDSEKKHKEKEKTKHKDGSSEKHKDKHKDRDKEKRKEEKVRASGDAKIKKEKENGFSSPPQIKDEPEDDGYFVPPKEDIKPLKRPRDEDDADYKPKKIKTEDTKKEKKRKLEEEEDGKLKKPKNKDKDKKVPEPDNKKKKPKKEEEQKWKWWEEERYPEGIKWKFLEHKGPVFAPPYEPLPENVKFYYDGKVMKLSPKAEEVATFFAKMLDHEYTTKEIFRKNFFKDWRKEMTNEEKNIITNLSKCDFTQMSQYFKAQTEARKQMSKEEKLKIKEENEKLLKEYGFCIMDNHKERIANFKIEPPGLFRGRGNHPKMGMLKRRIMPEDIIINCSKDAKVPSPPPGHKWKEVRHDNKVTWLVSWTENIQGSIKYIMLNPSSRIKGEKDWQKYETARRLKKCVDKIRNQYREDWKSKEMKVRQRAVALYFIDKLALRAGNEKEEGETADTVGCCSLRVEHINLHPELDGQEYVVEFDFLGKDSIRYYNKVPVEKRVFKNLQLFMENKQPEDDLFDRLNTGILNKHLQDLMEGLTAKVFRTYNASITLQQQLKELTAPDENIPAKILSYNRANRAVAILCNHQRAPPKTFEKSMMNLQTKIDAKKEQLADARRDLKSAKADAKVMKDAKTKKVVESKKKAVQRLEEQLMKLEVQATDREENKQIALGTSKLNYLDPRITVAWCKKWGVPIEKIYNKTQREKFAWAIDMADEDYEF
The note with it: Ogitani Y. et al., Clinical Cancer Research 2016; cited from earlier work.

As for `CC[C@@]1(O)C(=O)OCc2c1cc1n(c2=O)Cc2c-1nc1cc(F)c(C)c3c1c2[C@@H](NC(=O)CO)CC3` [compound (A)], in assay [1], the “expression level of CD86 on CD11c-positive cells” value is “elevated” and the “expression level of MHC class II on CD11c-positive cells” value is listed as “elevated”. Further, in the assay on CT26.WT-hHER2 cells [2], the “expression level of MHC class I on CT26.WT-hHER2 cells (adjusted MFI)” value is “significantly elevated”. Further, the “expression level of MHC class I on CT26.WT-hHER2 cells” value in the assay on CT26.WT-hHER2 cells [3] is “maximum elevation effect”. For the same compound, on topoisomerase I, the “topoisomerase I inhibitory effect” value is given as “confirmed to have a topoisomerase I inhibitory effect”.
